Laboratory results taken from US20260308158A1, “TARGETING RNAS ASSOCIATED WITH TAUOPATHIES WITH SMALL MOLECULES” (University of Florida Research Foundation, Incorporated, priority 2023, published 2026).
Read-outs that look alike come from different tables or passages of the source.

Tests used:
DDPAC SRE RNA = test: In vitro competitive Chem-CLIP (C-Chem-CLIP), DDPAC SRE RNA; conditions: 3 at 1.5 μM, read-out: IC50, competition of the binding of 3
Description: In Vitro Chemical Cross-linking and Isolation by Pull Down (Chem-CLIP) and Competitive Chem-CLIP (C-Chem-CLIP). Growth medium [Dulbecco's modified eagle medium (DMEM; corning, 10-013-CM) with 1× Glutagro (corning)] and 10% (v/v) fetal bovine serum (FBS; Sigma, 12003C) was inactivated by heating at 95° C. for 15 min and slowly cooling to room temperature. Approximately 10,000 counts of 32P 5′-end labeled tau WT, DDPAC, WT+I17T, or DDPAC+I17T RNA were folded in 10 μL growth medium by heating at 65° C. for 5 min and slowly cooling to room temperature. Chem-CLIP probe 3 or negative control probe 4 was then added into the folded RNA in a total volume of 20 μL, and the mixtures were incubated at 37° C. for 1 h. For C-Chem-CLIP, dilutions of competing compound 2 were incubated with RNA for 30 min before adding 3. […]
The Chem-CLIP probe 3 or control probe 4 was then clicked to disulfide biotin azide (2 μL of 10 mM solution prepared in DMSO solution per sample; Click Chemistry Tools, catalog no. 1168-10). […] The radioactive signal from bound RNAs (on the beads) and unbound RNAs (in the wash buffer) was measured by using a Beckman Coulter LS6500 Liquid Scintillation Counter as Rbound and Runbound. Enrichment was calculated as the percentage of radiolabeled RNA captured by beads calculated as Rbound/(Rbound+Runbound).

WT tau RNA duplex = test: NMR spectral analysis (WaterLOGSY, 1D, 2D NOESY) with WT tau duplex; format: binding
Description: Preparation of NMR Samples. Two duplex-forming oligoribonucleotides r (5′-[…]-3′ (SEQ ID NO: 3))+r(5′[…]-3′ (SEQ ID NO: 4)) were designed to mimic the stem of the tau wild type (WT) hairpin. Individual RNA oligonucleotides were combined in 400 μL of NMR Buffer [10 mM KH2PO4/K2HPO4, pH 6.0 and 0.5 mM EDTA] in H2O or 100% D2O with a final RNA duplex concentration of 15 μM for WaterLOGSY experiments, […] was added to 5% (v/v) to provide a lock signal. RNA samples were annealed by heating to 95° C. for 3 min, followed by slow cooling to room temperature before being added to Shigemi NMR tubes (Shigemi, Inc.). Compound of interest was added to a final compound: RNA molar ratio of 20.0 for WaterLOGSY experiments, 2.0 for 1D ^1H H2O experiments, and 1.5 for 2D ^1NOESY experiments.
NMR Spectroscopy. NMR spectra were acquired on Bruker Avance III 600 and 700 MHz spectrometers equipped with cryoprobes. WaterLOGSY spectra were acquired at 298 K, 1D NMR spectra of samples in 95% H2O/5% D2O were acquired at 283 K, and 2D NOESY spectra in 100% D2O were acquired at 308 K. For 1D spectra of samples in 95% H2O/5% D2O, an excitation sculpting sequence during acquisition suppressed the water signal. Proton chemical shifts were referenced internally to the frequency of water. WaterLOGSY and 1D ^1H spectra were processed using Bruker TopSpin and 2D NMR spectra were processed with NMRPipe^1 and assigned with SPARKY^2.

[1] = Plasma and brain exposure in mice; format: in vivo, C57BL/6J mouse; conditions: mouse, po, 100 mg/kg p.o., C57BL/6J mice
Description: Quantitation of 2 in Mouse Plasma and Brain. Male C57BL/6J mice (n=3 per time point; 5-7 weeks) were orally administered with 2 (100 mg/kg) in a formulation of DMSO/Tween-80/H2O (5/5/90). After 2, 12, 24, and 48 h, mice were euthanized, and blood and brain were collected. Brains were immediately frozen. Blood was centrifuged to generate plasma and immediately frozen. On the day of analysis, brains were homogenized, mixed with a 5-times volume of acetonitrile, and filtered. The plasma was also filtered. Drug levels were determined by mass spectrometry using an ABSciex 5500 mass spectrometer with multiple reaction monitoring. Compound 2 was detected using the mass transition 435->236.

htau mice = test: Nesting activity, htau mice; format: in vivo, htau mouse; conditions: scale 1-5, 100 mg/kg p.o. q.o.d.
Description: Nesting Activity. From Day 1 to Day 20, mice were individually housed and nesting material from the previous day was removed. An intact 3.0 g nestlet was placed within each cage. Around 15 h later, the resulting nest was photographed for qualitative scoring, and the untorn nestlet was weighed if present. All nest images and weights were analyzed by a blinded individual and based on published criteria.^43 In brief, nesting is scored on a rating scale of 1-5 where if the nestlet is over 90% intact, it is given a nestlet score is 1 (Poor; FIG. 4C). When the nestlet is partially torn but >50% remains, the nestlet score is 2; a score of 3 is assigned when 50-90% of the nestlet is torn but spread around the cage and no identifiable nest site is found (Medium; FIG. 4C). When more than 90% of the nestlet is torn and the nest is identifiable but flat, the nestlet score is 4. When a near perfect nest is built and the wall is higher than the mouse's body, it is assigned a nestlet score of 5 (Good; FIG. 4C).

SMILES: COc1cc(N)ncc1CCCN(C)CCCn1cnc2c3ccccc3n(C)c2c1=O [Compound 2, 3-(3-((3-(6-amino-4-methoxypyridin-3-yl)propyl)(methyl)amino)propyl)-5-methyl-3,5-dihydro-4H-pyrimido[5,4-b]indol-4-one]
- IC50 (DDPAC SRE RNA): ~2000 nM
- WaterLOGSY on addition of RNA (WT tau RNA duplex; 300 μM of 2, WT tau duplex, 298 K): changed the sign of the NOE, resulting in the appearance of negative peaks
- RNA 1D 1H (imino proton) spectrum on addition of compound (WT tau RNA duplex; 0.5-2.0 equivalents of 2): dose dependent changes in the RNA's 1D ^1H spectrum
- NOE between compound and RNA (WT tau RNA duplex; 2D NOESY, 400 ms mixing time, 35° C.): A single NOE was observed from H5/H6 of the compound to G17H1′
- concentration at 48 h ([1]; brain, read-out: brain concentration): 2900 ± 1600 nM
- concentration at 48 h ([1]; plasma, read-out: plasma concentration): 500 ± 300 nM
- nesting score at Day 2 (htau mice): 2.6±1.1
- nesting score at Day 20 (htau mice): 4.5±0.4
